Patent US20240342168A1, “SMALL MOLECULE INHIBITORS FOR ANTI-CANCER COMBINATION THERAPY” (UNIVERSITY OF CAPE TOWN, priority 2021, published 2024)

Experiments:
[1] = tested on: SiHa cells; assay: PARP cleavage by Western blot; assay type: cell-based
Method: (§1) For protein extraction, cells were washed with PBS and lysed using RIPA buffer (50 mM Tris-CI, pH 7.4, 150 mM NaCl, 1% (w/v) sodium deoxycholate, 0.1% (v/v) SDS, 1% (v/v) Triton X-100, 2 mM EGTA, 2 mM EDTA, 50 mM NaF, 5 mM Na2P2O7, 1× complete protease inhibitor cocktail (Roche) and 0.1 M Sodium Orthovanadate). For PARP cleavage analysis, dead cells were collected by centrifugation and combined with live cell lysates. Lysates were sonicated, centrifuged, and the supernatant quantified using the BCA Protein Assay Kit (Pierce, Thermo Scientific) according to the manufacturer's instructions. Proteins were subjected to Western blot analysis using the following antibodies: rabbit anti-Kpnβ1 (H-300, sc-11,367, Santa Cruz), rabbit anti-β-tubulin (H-235, sc-9104, Santa Cruz), rabbit anti-PARP1/2 antibody (H-250, sc-7150, Santa Cruz), mouse anti-GAPDH (0411, sc-47,724, Santa Cruz), rabbit anti-p21 (H-164, sc-756, Santa Cruz), rabbit anti-Mcl-1 (H-260, sc-20,679, Santa Cruz), mouse anti-cyclin D1 (HD11, sc-246, Santa Cruz), rabbit anti-c-Myc (N-262, sc-764, Santa Cruz), mouse anti-p53 (DO-7, M7001, DakoCytomation), mouse anti-XIAP (610,763, BD Biosciences), and rabbit anti-phospho-Histone H2AX (γH2AX, Ser139, 20E3, #9718, Cell Signal).

[2] = tested on: HeLa cells; assay: PARP cleavage by Western blot; assay type: cell-based
Method: as §1

[3] = tested on: γH2AX; assay: Western blot of phosphorylated Histone 2AX (DNA damage marker); assay type: cell-based; details: INI-43-cisplatin CT, 24 h, concentration dependent
Method: as §1

[4] = tested on: NFκB-p65 in cancer cells; details: van der Watt et al. 2016; cited from earlier work
[5] = tested on: HeLa cells; assay: Drug washout experiments (MTT); assay type: cell-based
Method: Cells were plated in 96-well plates and subjected to 2 h INI-43 pre-treatment followed by cisplatin treatment, with or without removing INI-43 from the media, for 48 h. Following treatment, MTT (Sigma) was added and 4 h later crystals solubilized using 10% SLS in 0.01 M HCl.

[6] = tested on: p65 reporter activity in SiHa cells; assay: p65-luciferase reporter assay; assay type: cell-based; details: pre-treated with INI-43 then cisplatin
Method: SiHa cells were transfected with 100 ng p65-luciferase reporter construct (containing five copies of the p65-binding site, Promega) or 200 ng p53-luciferase reporter construct (containing thirteen wildtype p53 binding sites, Addgene plasmid #16442, Addgene Plasmid Repository (el-Deiry W S, Tokino T, Velculescu V E, Levy D B, Parsons R, Trent J M, et al. WAF1, a potential mediator of p53 tumor suppression. Cell. 1993; 75(4):817-25) and 10 ng pRL-TK (encoding Renilla luciferase, Promega), using Genecellin transfection reagent (Celtic Molecular Diagnostics). The following day cells were treated with 5 μM INI-43 for 2 h, followed by 30 μM cisplatin for 24 h, and luciferase activity assayed using the Dual-Luciferase Report assay system (Promega), according to the manufacturer's instructions. Luciferase readings were measured using the Veritas™ microplate luminometer (Promega) and normalised to Renilla luciferase from the same extract.

[7] = tested on: cyclin D1, c-Myc and XIAP; assay: Western blot of NFκB targets; assay type: cell-based; details: INI-43-cisplatin combination vs single cisplatin, concentration dependent
Method: as §1

[8] = tested on: HeLa; assay: MTT cell viability / cisplatin IC50 determination; assay type: cell-based; details: for cell viability, combination treatment vs cisplatin-only: 5 μM INI-43 pre-treatment, fixed cisplatin concentrations, MTT 48 h
Method: (§2) HeLa, SiHa, CaSki and C33A cell lines were purchased from the American Type Culture Collection (ATCC) and maintained in Dulbecco's Modified Eagle's Medium (DMEM, Gibco, Life Technologies) containing 10% Fetal Bovine Serum (Gibco, Life Technologies), supplemented with 100 U/mL penicillin and 100 μg/mL streptomycin. Cells were cultured at 37° C. in a humidified chamber with 5% CO2. All cell lines were authenticated by DNA profiling using the Cell ID System (Promega, Madison, WI, USA).
(§3) Cells were plated in 96-well plates and subjected to single or CT (2 h INI-43 pre-treatment followed by cisplatin treatment, without removing IN1-43 from the media) for 48 h. Following treatment, MTT (Sigma) was added and 4 h later crystals solubilized using 10% SLS in 0.01 M HCl. Absorbencies were measured at 595 nm and IC50 values determined via plotting [Fa/(1-Fa)] in log scale against log cisplatin concentration, where:
(§4) The half inhibitory concentration was calculated using the formula IC50=10^x-intercept

[9] = tested on: C33A; assay: MTT cell viability / cisplatin IC50 determination; assay type: cell-based
Method: as §2, §3, §4

[10] = tested on: CaSki; assay: MTT cell viability / cisplatin IC50 determination; assay type: cell-based; details: for cell viability, combination treatment vs cisplatin-only: 5 μM INI-43 pre-treatment, fixed cisplatin concentrations, MTT 48 h
Method: as §2, §3, §4

[11] = tested on: SiHa; assay: MTT cell viability / cisplatin IC50 determination; assay type: cell-based; details: for cell viability, combination treatment vs cisplatin-only: 5 μM INI-43 pre-treatment, fixed cisplatin concentrations, MTT 48 h
Method: as §2, §3, §4

[12] = tested on: p53 in SiHa cells; assay: p53 half-life determination (cycloheximide chase, Western blot); assay type: cell-based; details: 5 μM INI-43 2 h vs DMSO, then 50 μg/mL CHX
Method: Cells were treated with 5 μM INI-43 or DMSO for 2 hours or transfected with 20 nM si-ctrl or si-Kpnβ1 for 48 h prior to p53 half-life determination. Cells were treated with 50 μg/mL cycloheximide (CHX), and protein harvested at 0, 15, 30, 45, 60 and 90 min after CHX treatment. p53 content was analysed by western blotting. Bands were quantified by densitometrical scanning using ImageJ, normalised to GAPDH and expressed as a value relative to p53 intensity at time 0. Relative band intensities were plotted in log scale against time of CHX treatment and a linear trendline drawn. The half-life was calculated using the formula T1/2 (minutes)=Log(2)/[slope].

[13] = INI-43 pre-treatment plus cisplatin
[14] = 2 h INI-43 pre-treatment then cisplatin 48 h, vs no pre-treatment

decrease in cisplatin IC50 [8, 14]: 44%
SMILES: CN(C)CCCn1c(N)c(-c2nc3ccccc3[nH]2)c2nc3ccccc3nc21 [INI-43]
apoptosis (PARP cleavage), INI-43 on its own ([1]; 5 μM INI-43): negligible apoptosis | PARP cleavage, combination treated vs cisplatin only [1, 13]: enhanced PARP cleavage | apoptosis (PARP cleavage), INI-43 on its own ([2]; 5 μM INI-43): negligible apoptosis | PARP cleavage, combination treated vs cisplatin only [2, 13]: enhanced PARP cleavage | γH2AX levels [3]: increased | PMA-stimulated nuclear entry of NFκB-p65 [4]: prohibited | cell viability, combination treatment vs cisplatin alone after INI-43 washout ([5]; 2 h INI-43, removed before cisplatin treatment (washout 1 and 2), 48 h): significantly reduced cell viability | enhancement of cell death upon combination treatment after INI-43 washout ([5]; HeLa cells, vs INI-43 still present): slightly reduced | cisplatin-induced increase in p65 activity [6]: reduced | levels of cyclin D1, c-Myc and XIAP [7]: all reduced | cell viability, INI-43 on its own ([8]; 5 μM INI-43): did not affect cell viability | cell viability, combination treatment vs cisplatin-only [8]: significantly decreased cell viability | cell viability, combination treatment vs cisplatin-only ([8]; listed as Compound A): increased cisplatin sensitivity | cell viability, INI-43 on its own ([9]; 5 μM INI-43): did not affect cell viability | cell viability, combination treatment vs cisplatin-only ([9]; 5 μM INI-43 pre-treatment, fixed cisplatin concentrations, MTT 48 h): no change in cell viability | change in cisplatin IC50 [9, 14]: no change | cell viability, INI-43 on its own ([10]; 5 μM INI-43): did not affect cell viability | cell viability, combination treatment vs cisplatin-only [10]: significantly decreased cell viability | cell viability, combination treatment vs cisplatin-only ([10]; listed as Compound A): increased cisplatin sensitivity | change in cisplatin IC50 [10, 14]: small reduction | cell viability, INI-43 on its own ([11]; 5 μM INI-43): did not affect cell viability | cell viability, combination treatment vs cisplatin-only [11]: significantly decreased cell viability | cell viability, combination treatment vs cisplatin-only ([11]; listed as Compound A): increased cisplatin sensitivity | decrease in cisplatin IC50 [11, 14]: 46% | increase in p53 half-life [12]: ~2.9 fold
